Assay results as given in patent US20250171459A1, “2-METHYL-4',5'-DIHYDROSPIRO[PIPERIDINE-4,7'-THIENO[2,3-C]PYRAN] DERIVATIVES AS INHIBITORS OF APOL1 AND METHODS OF USING SAME” (Vertex Pharmaceuticals Incorporated, priority 2022, published 2025).

Molecular target: T1, APOL1 (Homo sapiens, UniProt O14791)
T1 sequence (O14791 1-398 S342G/I384M): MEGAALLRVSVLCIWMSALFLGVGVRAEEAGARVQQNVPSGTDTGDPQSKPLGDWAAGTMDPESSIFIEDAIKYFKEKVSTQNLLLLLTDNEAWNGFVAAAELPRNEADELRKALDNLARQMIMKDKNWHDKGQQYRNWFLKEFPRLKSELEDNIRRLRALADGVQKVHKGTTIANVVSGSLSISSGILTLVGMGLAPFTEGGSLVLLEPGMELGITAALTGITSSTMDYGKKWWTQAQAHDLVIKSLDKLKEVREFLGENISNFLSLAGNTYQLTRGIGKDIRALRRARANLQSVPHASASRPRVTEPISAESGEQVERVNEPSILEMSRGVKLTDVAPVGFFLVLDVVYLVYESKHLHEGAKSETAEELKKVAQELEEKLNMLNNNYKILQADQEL
Test: MultiTox-Fluor Multiplex Cytotoxicity Assay in tet-inducible APOL1 T-REx-HEK293 cells (cell rescue, ratio of dead to live cells)
Type: cell-based
Conditions: tet-inducible transgenic APOL1 T-REx-HEK293 cell lines, 50 ng/mL tet, 24 hours; read-out: IP50 (i.e., IC50 for cell proliferation)
In short: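 T-REx-HEK293 cells with tet-inducible APOL1 were treated with compound (10 μM top, 10-point 3-fold dilution, duplicate) plus 50 ng/mL tetracycline for 24 h at 37° C, in DMEM with 2% tet-free FBS. MultiTox-Fluor protease signals gave a dead/live ratio, normalized to no tet (100% viability) and tet alone (0%).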

Structure (SMILES) | IC50 [nM]
CC(O)CN1CC[C@]2(C[C@@H]1C)OCCc1cc(CC(F)F)sc12 (stereo partly drawn) [Compound 613, 1-((2S,4R)-2′-(2,2-difluoroethyl)-2-methyl-4′,5′-dihydrospiro[piperidine-4,7′-thieno[2,3-c]pyran]-1-yl)propan-2-ol] | 100 to 500
COCCN1CC[C@]2(C[C@@H]1C)OCCc1cc(CC(F)F)sc12 [Compound 614] | 100 to 500
C[C@H]1C[C@@]2(CCN1CCCO)OCCc1cc(CC(F)F)sc12 [Compound 615] | 100 to 500
C[C@H]1C[C@@]2(CCN1CC(F)F)OCCc1cc(CC(F)F)sc12 [Compound 616] | 500 to 1000
C[C@H]1C[C@@]2(CCN1CC1CC1(F)F)OCCc1cc(CC(F)F)sc12 (stereo partly shown) [Compound 617] | < 100
Cc1nc(CN2CC[C@]3(C[C@@H]2C)OCCc2cc(CC(F)F)sc23)c(C)o1 [Compound 618] | 500 to 1000
C[C@H]1C[C@@]2(CCN1CC1CCC(=O)N1)OCCc1cc(CC(F)F)sc12 (stereo partly shown) [Compound 619] | 100 to 500
C[C@H]1C[C@@]2(CCN1CCC(C)(C)O)OCCc1cc(CC(F)F)sc12 [Compound 620] | 100 to 500
C[C@H]1C[C@@]2(CCN1CC1CNC(=O)C1)OCCc1cc(CC(F)F)sc12 (stereo partly shown) [Compound 621] | < 100
C[C@H]1C[C@@]2(CCN1CC(N)=O)OCCc1cc(CC(F)F)sc12 [Compound 622] | 500 to 1000
C[C@H]1C[C@@]2(CCN1CCN1CCCC1=O)OCCc1cc(CC(F)F)sc12 [Compound 623] | 500 to 1000
C[C@H]1C[C@@]2(CCN1CC(=O)N(C)C)OCCc1cc(CC(F)F)sc12 [Compound 624] | 500 to 1000
C#CCN1CC[C@]2(C[C@@H]1C)OCCc1cc(Cl)sc12 [Compound 625, (2′S, 7R)-2-chloro-2′-methyl-1′-prop-2-ynyl-spiro[4,5-dihydrothieno[2,3-c]pyran-7,4′-piperidine]] | 500 to 1000
C[C@H]1C[C@@]2(CCN1Cc1cn(CCO)nn1)OCCc1cc(Cl)sc12 [Compound 627] | 100 to 500
C[C@H]1C[C@@]2(CCN1Cc1cn(CC(CO)CO)nn1)OCCc1cc(Cl)sc12 [Compound 628] | 100 to 500
C[C@H]1C[C@@]2(CCN1Cc1cn(CC(C)(CO)CO)nn1)OCCc1cc(Cl)sc12 [Compound 629] | 100 to 500
C[C@H]1C[C@@]2(CCN1Cc1cnn(CCO)c1)OCCc1cc(Cl)sc12 [Compound 632] | < 100
C[C@H]1C[C@@]2(CCN1Cc1cnn(CC3(C)COC3)c1)OCCc1cc(Cl)sc12 [Compound 633] | < 100
C[C@H]1C[C@@]2(CCN1Cc1cnn(CC(C)(CO)CO)c1)OCCc1cc(Cl)sc12 [Compound 634] | < 100
CC(=O)Nc1ccc(CN2CC[C@]3(C[C@@H]2C)OCCc2cc(Cl)sc23)cc1 [Compound 635] | < 100
C[C@H]1C[C@@]2(CCN1Cc1ccc(N(CCO)CCO)cc1)OCCc1cc(Cl)sc12 [Compound 636] | < 100
Cc1cn2nc(CN3CC[C@]4(C[C@@H]3C)OCCc3cc(Cl)sc34)cc2c(NC2CC2)n1 [Compound 637] | < 100
C[C@H]1C[C@@]2(CCN1Cc1ccc(NS(C)(=O)=O)cc1)OCCc1cc(Cl)sc12 [Compound 638] | < 100
C[C@H]1C[C@@]2(CCN1Cc1cccnc1)OCCc1cc(Cl)sc12 [Compound 639] | < 100
COCCc1ncc(CN2CC[C@]3(C[C@@H]2C)OCCc2cc(Cl)sc23)cn1 [Compound 640] | 100 to 500

Structure (SMILES) | IC50 [nM]
C[C@H]1C[C@@]2(CCN1Cc1cccc(NS(C)(=O)=O)c1)OCCc1cc(Cl)sc12 [Compound 641] | 100 to 500
C[C@H]1C[C@@]2(CCN1CCCn1cccn1)OCCc1cc(Cl)sc12 [Compound 642] | 500 to 1000
CC(O)CCN1CC[C@]2(C[C@@H]1C)OCCc1cc(Cl)sc12 (stereo partly shown) [Compound 643] | 500 to 1000
C[C@H]1C[C@@]2(CCN1Cc1ccc(OCCO)cc1)OCCc1cc(Cl)sc12 [Compound 644] | < 100
C[C@H]1C[C@@]2(CCN1Cc1ccncc1)OCCc1cc(Cl)sc12 [Compound 645] | 100 to 500
C[C@H]1C[C@@]2(CCN1Cc1cccc(OCCO)c1)OCCc1cc(Cl)sc12 [Compound 646] | < 100
C[C@H]1C[C@@]2(CCN1Cc1ccc(N3CCCC3=O)cc1)OCCc1cc(Cl)sc12 [Compound 647] | < 100
C[C@H]1C[C@@]2(CCN1Cc1ccc(OCC(=O)N3CCOCC3)cc1)OCCc1cc(Cl)sc12 [Compound 648] | < 100
Cc1cncc(CN2CC[C@]3(C[C@@H]2C)OCCc2cc(Cl)sc23)c1 [Compound 649] | 100 to 500
C[C@H]1C[C@@]2(CCN1Cc1cn(-c3ncccn3)cn1)OCCc1cc(Cl)sc12 [Compound 650] | 100 to 500
COc1ncc(CN2CC[C@]3(C[C@@H]2C)OCCc2cc(Cl)sc23)cn1 [Compound 651] | < 100
CNC(=O)c1cccc(CN2CC[C@]3(C[C@@H]2C)OCCc2cc(Cl)sc23)c1 [Compound 652] | 100 to 500
CCc1ncc(CN2CC[C@]3(C[C@@H]2C)OCCc2cc(Cl)sc23)cn1 [Compound 653] | 100 to 500
C[C@H]1C[C@@]2(CCN1Cc1ccc(S(C)(=O)=O)cc1)OCCc1cc(Cl)sc12 [Compound 654] | 100 to 500
COc1cc(OCC(N)=O)ccc1CN1CC[C@@]2(C[C@H]1C)OCCc1cc(Cl)sc12 [Compound 655] | < 100
C[C@H]1C[C@@]2(CCN1Cc1cccc(OCC(N)=O)c1)OCCc1cc(Cl)sc12 [Compound 656] | 100 to 500
COc1ccc(CN2CC[C@]3(C[C@@H]2C)OCCc2cc(Cl)sc23)cc1OCC(N)=O [Compound 657] | < 100
C[C@H]1C[C@@]2(CCN1Cc1cnc(N3CCOCC3)nc1)OCCc1cc(Cl)sc12 [Compound 658] | < 100
C[C@H]1C[C@@]2(CCN1Cc1ccc(C(=O)N(C)C)cc1)OCCc1cc(Cl)sc12 [Compound 660] | 100 to 500
COc1ccc(CN2CC[C@]3(C[C@@H]2C)OCCc2cc(Cl)sc23)cn1 [Compound 662] | < 100
COc1cc(CN2CC[C@]3(C[C@@H]2C)OCCc2cc(Cl)sc23)ccc1OCC(N)=O [Compound 663] | < 100
C[C@H]1C[C@@]2(CCN1Cc1ccc3c(c1)n(C)c(=O)n3C)OCCc1cc(Cl)sc12 [Compound 664] | < 100
C[C@H]1C[C@@]2(CCN1Cc1ccc(F)cn1)OCCc1cc(Cl)sc12 [Compound 665] | 100 to 500
C[C@H]1C[C@@]2(CCN1Cc1cnccn1)OCCc1cc(Cl)sc12 [Compound 666] | 100 to 500
C[C@H]1C[C@@]2(CCN1Cc1ccc(C#N)nc1)OCCc1cc(Cl)sc12 [Compound 667] | 100 to 500

Structure (SMILES) | IC50 [nM]
C[C@H]1C[C@@]2(CCN1Cc1ccccn1)OCCc1cc(Cl)sc12 [Compound 668] | 500 to 1000
C[C@H]1C[C@@]2(CCN1Cc1ccc(S(C)(=O)=O)c(F)c1)OCCc1cc(Cl)sc12 [Compound 669] | 100 to 500
C[C@H]1C[C@@]2(CCN1CC1CCN(S(C)(=O)=O)CC1)OCCc1cc(Cl)sc12 [Compound 670] | 100 to 500
Cc1nccn1-c1ccc(CN2CC[C@]3(C[C@@H]2C)OCCc2cc(Cl)sc23)cc1 [Compound 671] | < 100
C[C@H]1C[C@@]2(CCN1Cc1ccc(F)cc1)OCCc1cc(Cl)sc12 [Compound 672] | 100 to 500
C[C@H]1C[C@@]2(CCN1CCC1CCOCC1)OCCc1cc(Cl)sc12 [Compound 673] | 500 to 1000
Cc1ncccc1CN1CC[C@]2(C[C@@H]1C)OCCc1cc(Cl)sc12 [Compound 674] | 500 to 1000
Cc1ccc(CN2CC[C@]3(C[C@@H]2C)OCCc2cc(Cl)sc23)c(C)n1 [Compound 675] | 100 to 500
C[C@H]1C[C@@]2(CCN1CC1(C)COC1)OCCc1cc(Cl)sc12 [Compound 676] | 100 to 500
Cc1cncc(N2CCC(CN3CC[C@]4(C[C@@H]3C)OCCc3cc(Cl)sc34)CC2)n1 [Compound 677] | 500 to 1000
C[C@H]1C[C@@]2(CCN1Cc1ccncc1F)OCCc1cc(Cl)sc12 [Compound 678] | 500 to 1000
C[C@H]1C[C@@]2(CCN1Cc1cn3c(n1)CCC3)OCCc1cc(Cl)sc12 [Compound 679] | 500 to 1000
Cc1cccc(CN2CC[C@]3(C[C@@H]2C)OCCc2cc(Cl)sc23)n1 [Compound 680] | 500 to 1000
C[C@H]1C[C@@]2(CCN1Cc1ccnn1C)OCCc1cc(Cl)sc12 [Compound 681] | 500 to 1000
C[C@H]1C[C@@]2(CCN1Cc1ccccc1F)OCCc1cc(Cl)sc12 [Compound 682] | 100 to 500
Cc1ncc(CN2CC[C@]3(C[C@@H]2C)OCCc2cc(Cl)sc23)n1C [Compound 683] | 500 to 1000
C[C@H]1C[C@@]2(CCN1Cc1ncccc1F)OCCc1cc(Cl)sc12 [Compound 684] | 500 to 1000
C[C@H]1C[C@@]2(CCN1CC1CCOCC1)OCCc1cc(Cl)sc12 [Compound 685] | 500 to 1000
C[C@H]1C[C@@]2(CCN1Cc1ncn3ccccc13)OCCc1cc(Cl)sc12 [Compound 686] | 500 to 1000
C[C@H]1C[C@@]2(CCN1Cc1cccc(F)c1O)OCCc1cc(Cl)sc12 [Compound 687] | 500 to 1000
C[C@H]1C[C@@]2(CCN1Cc1cccc(F)c1)OCCc1cc(Cl)sc12 [Compound 688] | 500 to 1000
COc1cccc(CN2CC[C@]3(C[C@@H]2C)OCCc2cc(Cl)sc23)n1 [Compound 689] | 500 to 1000
C[C@H]1C[C@@]2(CCN1Cc1cccc(Cl)c1O)OCCc1cc(Cl)sc12 [Compound 690] | 500 to 1000
